Assay [1] relates to Entamoeba histolytica. In words: (§1) Lowest active dose which cured rats with Entamoeba histolytica cecal infection was measured. Type of assay: functional, organism-based.
Assay [2] concerns Cricetinae gen. sp. In words: Lowest active dose which cured the hamsters with Entamoeba histolytica hepatic infection was measured; IA means inactive. Type of assay: functional, organism-based. Conditions: Cricetulus griseus.
For assay [3], the system named is Entamoeba histolytica. The assay is described as §1. The format is functional.
The subject of assay [4] is Entamoeba histolytica. Kind of assay: Lowest active dose which cured hamsters with Entamoeba histolytica hepatic infection was measured. Type of assay: functional.

The source made the active and inactive calls. No cut-off for these calls is given here.

`CC/C(=N\c1cc(Cl)cc2nc(N3CCN(C)CC3)c(N3CCN(C)CC3)nc12)N(C)C`: the Dose result in assay [1] was “inactive”.
Still for that read-out and setting: the result for `CCN(CC)/C(C)=N/c1cc(Cl)cc2nc(N3CCN(C)CC3)c(N3CCN(C)CC3)nc12` reads “inactive”.
Still for that read-out and setting: as for `CN(C)/C=N/c1cc(Cl)cc2nc(N3CCN(C)CC3)c(N3CCN(C)CC3)nc12` (stereo in doubt; 7), the entry is “inactive”; as for `CN1CCN(c2nc3ccc(NS(=O)(=O)c4ccc(Cl)cc4)cc3nc2N2CCN(C)CC2)CC1`, “inactive”.
With `CN1CCN(c2nc3ccc(N)cc3nc2N2CCN(C)CC2)CC1`, the Dose result in assay [2] was “inactive”. Besides, the Dose in assay [3] is 50 mg/kg/day.
As to `CN(C)CCCc1ccc(/C=N/c2ccc3nc(N4CCN(C)CC4)c(N4CCN(C)CC4)nc3c2)cc1`, the Dose in assay [3] was 50 mg/kg/day.
Consider `CN1CCN(c2nc3cc(Cl)cc(NS(=O)(=O)c4ccc(Cl)cc4)c3nc2N2CCN(C)CC2)CC1`, for which the Dose result in assay [1] was “inactive”.
Take `Cc1ccc(S(=O)(=O)Nc2ccc3nc(N4CCN(C)CC4)c(N4CCN(C)CC4)nc3c2)cc1`: the Dose worked out at 100 mg/kg/day in assay [4] and 50 mg/kg/day in assay [3].
For `CCCN1CCN(c2nc3ccc(/N=C/N(C)C)cc3nc2N2CCN(CCC)CC2)CC1` the same measures were 100 mg/kg/day and 50 mg/kg/day.
For the compound `CN1CCN(c2nc3ccc(NS(=O)(=O)c4cccc(C(F)(F)F)c4)cc3nc2N2CCN(C)CC2)CC1`, the Dose result in assay [1] is “inactive”.
Take `CCCN1CCN(c2nc3ccc(/N=C(\C)N(C)C)cc3nc2N2CCN(CCC)CC2)CC1`: the Dose result in assay [1] was “inactive”.
With `CN1CCN(c2nc3cccc(N)c3nc2N2CCN(C)CC2)CC1`, in assay [2], the Dose result was “inactive”. The same compound gave a Dose in assay [3] of 50 mg/kg/day.
Turning to `CCCN1CCN(c2nc3cccc(N)c3nc2N2CCN(CCC)CC2)CC1`, in assay [1], the Dose entry is “inactive”.
As for `C/C(=N\c1ccc2nc(N3CCN(C)CC3)c(N3CCN(C)CC3)nc2c1)N(C)C`, in assay [1], the Dose entry is “inactive”.
Same read-out and setting: the result for `CCCN1CCN(c2nc3ccc(N)cc3nc2N2CCN(CCC)CC2)CC1` reads “inactive”.
As for `Cc1ncc([N+](=O)[O-])n1CCO` [METRONIDAZOLE], the Dose in assay [4] and in assay [3] was 10 mg/kg/day throughout.
On to `CN(C)/C=N/c1cccc2nc(N3CCN(C)CC3)c(N3CCN(C)CC3)nc12`, for which the Dose stood at 50 mg/kg/day in assay [4] and 10 mg/kg/day in assay [3].
Turning to `CCN(/C=N/c1ccc2nc(N3CCN(C)CC3)c(N3CCN(C)CC3)nc2c1)CC`, the Dose result in assay [1] was “inactive”.
For the compound `CN1CCN(c2nc3ccc(/N=C/N4CCCCC4)cc3nc2N2CCN(C)CC2)CC1`, the Dose result in assay [1] is “inactive”.
On to `CN1CCN(/C=N/c2ccc3nc(N4CCN(C)CC4)c(N4CCN(C)CC4)nc3c2)CC1`, for which the Dose result in assay [1] is “inactive”.
On to `CN(C)/C=N/c1ccc2nc(N3CCN(C)CC3)c(N3CCN(C)CC3)nc2c1`, for which the results for the Dose in assay [4] and in assay [3] were 50 mg/kg/day and 20 mg/kg/day, respectively.
Consider `C/C(=N\c1cccc2nc(N3CCN(C)CC3)c(N3CCN(C)CC3)nc12)N(C)C`, for which the Dose result in assay [1] is “inactive”.
Same read-out and setting: the result for `CN(C)CCCN1CCN(/C=N/c2ccc3nc(N4CCN(C)CC4)c(N4CCN(C)CC4)nc3c2)CC1` reads “inactive”; that for `Cc1ccc(S(=O)(=O)Nc2cccc3nc(N4CCN(C)CC4)c(N4CCN(C)CC4)nc23)cc1`, “inactive”.
Take `CC/C(=N\c1cccc2nc(N3CCN(C)CC3)c(N3CCN(C)CC3)nc12)N(C)C`: in assay [1], the Dose entry is “inactive”.
For `CN(C)/C=N/c1cc(Cl)cc2nc(N3CCN(C)CC3)c(N3CCN(C)CC3)nc12` (stereo in doubt; 21), the Dose result in assay [1] is “inactive”.
For `CN1CCN(c2nc3cc(Cl)cc(N)c3nc2N2CCN(C)CC2)CC1`, the Dose entry in assay [1] was “inactive”.
As for `O=[N+]([O-])c1cncn1CCN1CCOCC1` [NIMORAZOLE], the results for the Dose in assay [4] and in assay [3] were 100 mg/kg/day and 20 mg/kg/day, respectively.
As to `CC/C(=N\c1ccc2nc(N3CCN(C)CC3)c(N3CCN(C)CC3)nc2c1)N(CC)CC`, the Dose result in assay [1] was “inactive”.
With `CCCN1CCN(c2nc3ccc(NS(=O)(=O)c4ccc(C)cc4)cc3nc2N2CCN(CCC)CC2)CC1`, the Dose result in assay [1] is “inactive”.

These data come from ChEMBL document CHEMBL1121391, “Antiamebic amidines and sulfonamides of 5- and 6-amino-2,3-bis(4-alkyl-1-piperazinyl)quinoxalines” (1980).
